{"source": "patent US12310946B2", "about": "“Pharmaceutical composition for oral administration of edaravone and method of administering same” (MITSUBISHI TANABE PHARMA CORPORATION, priority 2020, dated 2025)", "test": "in vitro", "conditions": "human, Caco-2, pH 7.4", "protocol": "Caco-2 cells were seeded on a 24-well plate, cultured at 37° C. for 21 to 23 days in a CO2 incubator, and then a Caco-2 cell monolayer membrane permeability test was conducted. After checking the membrane resistance value of the cell layer after the culture, the culture medium in the plate was replaced with HBSS (pH 7.4). […] For the control compounds, [^3H]propranolol as a high membrane permeability control and [^14C]mannitol as a low membrane permeability control were used.", "data": [{"smiles": "CC(C)NCC(O)COc1cccc2ccccc12", "note": "(centres unmarked) [[^3H]Propranolol, [^3H]propranolol]", "values": [{"measurement": "Papp A→B at 2 h, 10 μmol/L", "result": "28.9 ± 1.1", "unit": "×10⁻⁶ cm/s"}]}, {"smiles": "OC[C@@H](O)[C@@H](O)[C@H](O)[C@H](O)CO", "note": "[[^14C]Mannitol, [^14C]mannitol]", "values": [{"measurement": "Papp A→B at 2 h, 10 μmol/L", "result": "0.53 ± 0.007", "unit": "×10⁻⁶ cm/s"}]}]}
